Key:
ERβ as compared to ERα = ERβ as compared to ERα (Homo sapiens, UniProt Q92731); details: cited from earlier work
[1] = test system: SJL mice with adoptive EAE; details: followed for the first 27 days; cited from earlier work
[2] = test system: women with clinically definite MS; assay: Tolerability and laboratory safety measures, estriol trial and extension phase; assay type: in vivo, human; details: oral estriol 8 milligrams/day
From the text: Twelve female patients with clinically definite MS were enrolled. Six had RR disease and six had SP disease. All six RR and four of six SP patients completed the entire 18 month study period. […] Of the ten patients who completed the entire study, the mean age was 44 years (range 28 to 50 years) and the mean EDSS was 3.3 (range 1.0 to 6.5). The mean EDSS score for the SP patients was 5.0 while the mean EDSS for the RR patients was 2.2. The 18 month trial was extended in RR patients whereby treatment was re-instituted. Medication. For the initial treatment phase, micronized, U.S.P. graded estriol powder (Medisca, Inc., Plattsburg, N.Y.) was put into capsules by UCLA Pharmaceutical Services.
(§1) Subjects were evaluated using the Kurtzke's Expanded Disability Status Scale (EDSS) by the same neurologist (RV) throughout the study. At each visit the study nurse (RK) administered the paced auditory serial addition test (PASAT) and the 9-hole peg test. Blood was drawn for SMA12, cholesterol panel, blood counts and hormone levels (estriol, estradiol, estrone, LH, FSH, cortisol, progesterone). Estriol levels in serum were determined by ELISA according to manufacturer's instructions (Oxford Biomedical, Oxford, Mich.).
Indeed, estrogen cannot be given for a lengthy period of time in an “unopposed” fashion in any woman with a uterus. […]

[3] = test system: DTH responses to tetanus and candida; details: cited from earlier work
[4] = test system: peripheral blood mononuclear cells; details: pilot clinical trial, non-pregnant female MS patients; cited from earlier work
[5] = test system: DTH responses to tetanus and candida; design: species or system human; details: in vivo
[6] = test system: women with clinically definite MS; assay: Clinical measures: EDSS, 9-hole peg test, PASAT, relapses; assay type: in vivo, human
Method: as §1

[7] = test system: women with clinically definite MS; details: pilot clinical trial, non-pregnant female MS patients; cited from earlier work
[8] = test system: post-partum patient with relapsing remitting multiple sclerosis; assay: Case of post-partum relapsing remitting MS patient; assay type: in vivo, human
Method: A patient was diagnosed as having relapsing remitting multiple sclerosis. Following the delivery of their first child (now […]), the patient was treated only with Copaxone and relapsed at 6 weeks. Following the delivery of their second child (now […]), the patient was again treated with Copaxone alone and again relapsed, this time at 4.5 months. Following a subsequent pregnancy, the patient was treated with 8 mg estriol/day in an attempt to prevent their post partum relapses.
Following the birth of the patient's third child (now 6 months), the patient resumed treatment with Copaxone as before. However, on day 10 post-partum they began taking estriol 8 mg/daily in an oral dosage form. […] Since monthly brain MRIs with gadolinium to detect enhancing MS lesions are more sensitive for inflammatory disease activity than relapses, the patient underwent serial monthly MRIs at post partum months 4, 5, and 6.
The patient doubled the progesterone minipill for 2 weeks to stabilize the endometrium. Otherwise no adverse events have been reported.

[9] = Serum estriol levels (ELISA) in oral estriol crossover trial; assay type: in vivo, human; details: oral estriol 8 milligrams/day, treatment and re-treatment, MS patients
Method: as §1

[10] = test system: women with clinically definite MS; assay: Serial cerebral MRI: gadolinium enhancing lesions and T2 lesion volumes
[11] = test system: IFNγ in peripheral blood mononuclear cells (PBMCs); assay: IFNγ levels by RT-PCR of unstimulated PBMCs derived ex vivo; assay type: in vivo, human
Method: Peripheral blood mononuclear cells (PBMCs) were isolated from heparinized venous blood and cryopreserved. PBMCs were thawed in parallel from a given patient during the two pre-treatment timepoints and the two treatment timepoints. Total RNA was isolated, DNA was removed and mRNA was reverse transcribed. Both IFN-γ and actin were amplified from the same cDNA, however, the cDNA was diluted 1:9 prior to amplification for actin. Amplification was done in 1 mM […] using IFN.γ and actin primer sequences (Life Technologies, Rockville, Md.). Complementary DNA was amplified for 35 cycles: 45″ @ 95° C., 60″ @ 54° C. and 45″ @ 72° C. PCR products were separated on a 1.5% agarose gel containing ethidium bromide and densitometry performed.

EAE mice = details: cited from earlier work
[12] = RR patients, first three months of treatment
[13] = RR patients, next three months of treatment
[14] = 90 day release pellets of 5 or 15 milligrams estriol

Chain of ERβ as compared to ERα (Q92731 whole entry): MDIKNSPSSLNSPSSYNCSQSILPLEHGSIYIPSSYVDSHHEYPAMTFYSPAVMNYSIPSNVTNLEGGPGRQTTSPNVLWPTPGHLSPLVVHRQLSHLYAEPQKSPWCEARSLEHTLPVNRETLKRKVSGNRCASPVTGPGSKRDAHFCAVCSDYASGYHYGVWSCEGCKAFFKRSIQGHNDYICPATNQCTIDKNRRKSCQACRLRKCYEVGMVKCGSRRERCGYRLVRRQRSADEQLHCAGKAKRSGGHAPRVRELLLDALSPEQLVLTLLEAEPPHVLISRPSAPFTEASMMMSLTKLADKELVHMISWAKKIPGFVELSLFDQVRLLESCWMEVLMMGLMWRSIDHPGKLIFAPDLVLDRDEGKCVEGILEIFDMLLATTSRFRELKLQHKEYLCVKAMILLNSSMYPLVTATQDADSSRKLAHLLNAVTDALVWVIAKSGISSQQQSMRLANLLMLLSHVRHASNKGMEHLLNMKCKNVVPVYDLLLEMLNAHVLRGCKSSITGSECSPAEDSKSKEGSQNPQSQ

## C=Cc1cc(O)cc2nc(-c3ccc(O)c(F)c3)oc12 [WAY-202041]
ERβ as compared to ERα
  Selectivity for ERβ as compared to ERα: 200 fold
[1]
  Effect in adoptive EAE: no effect

## C[C@]12CC[C@@H]3c4ccc(O)cc4CC[C@H]3[C@@H]1CC(O)C2O (some centres unmarked) [estriol, estra-1,3,5(10)-triene-3,16,17-triol]
[2]
  Laboratory measures including LH, FSH, cortisol, progesterone, estradiol and estrone: no significant alterations
[2]; six months
  Tolerability: well tolerated with only menstrual cycle abnormalities
[3]
  Delayed type hypersensitivity response (prototypic in vivo Th1 response): reduced
[4]
  TH2 (IL5, IL10) cytokine production by peripheral blood mononuclear cells: increased
  Th1 (TNFα, IFNγ) cytokine production by peripheral blood mononuclear cells: reduced
[5]
  DTH responses to candida: decreased less dramatically and more variably
  DTH responses to tetanus: significantly, P=−0.006, decreased
[6]; 4 RR, L, 9 mo., Estriol Treatment
  Hole Peg Test Score: 24.3
[6]; 4 RR, L, 12 mo., Estriol Treatment
  Hole Peg Test Score: 23.3
[6]; 4 RR, L, 15 mo., Post Treatment
  Hole Peg Test Score: 23.0
[6]; 4 RR, L, 18 mo., Post Treatment
  Hole Peg Test Score: 22.7
[6]; 4 RR, R, 9 mo., Estriol Treatment
  Hole Peg Test Score: 22.5
[6]; 4 RR, R, 12 mo., Estriol Treatment
  Hole Peg Test Score: 21.5
[6]; 4 RR, R, 15 mo., Post Treatment
  Hole Peg Test Score: 21.0
[6]; 4 RR, R, 18 mo., Post Treatment
  Hole Peg Test Score: 21.4
[6]; 4 SP, 9 mo., Estriol Treatment
  EDSS Scores: 4.9
[6]; 4 SP, 12 mo., Estriol Treatment
  EDSS Scores: 5.0
[6]; 4 SP, 15 mo., Post Treatment
  EDSS Scores: 5.1
[6]; 4 SP, 18 mo., Post Treatment
  EDSS Scores: 5.0
[6]; 4 SP, L, 9 mo., Estriol Treatment
  Hole Peg Test Score: 22.7
[6]; 4 SP, L, 12 mo., Estriol Treatment
  Hole Peg Test Score: 24.8
[6]; 4 SP, L, 15 mo., Post Treatment
  Hole Peg Test Score: 26.7
[6]; 4 SP, L, 18 mo., Post Treatment
  Hole Peg Test Score: 25.0
[6]; 4 SP, R, 9 mo., Estriol Treatment
  Hole Peg Test Score: 30.2
[6]; 4 SP, R, 12 mo., Estriol Treatment
  Hole Peg Test Score: 31.7
[6]; 4 SP, R, 15 mo., Post Treatment
  Hole Peg Test Score: 29.4
[6]; 4 SP, R, 18 mo., Post Treatment
  Hole Peg Test Score: 34.0
[6]; 6 RR, 9 mo., Estriol Treatment
  EDSS Scores: 1.5
[6]; 6 RR, 12 mo., Estriol Treatment
  EDSS Scores: 1.7
[6]; 6 RR, 15 mo., Post Treatment
  EDSS Scores: 1.8
[6]; 6 RR, 18 mo., Post Treatment
  EDSS Scores: 1.8
[6]; RR patients, during treatment as compared to baseline
  Improvement in PASAT scores: 14.0%
[6]; SP patients, whole study
  Relapses: No relapses
[6]; during the study
  EDSS and 9 Hole Peg Test scores: no significant changes
[6]; six RR patients, post treatment period
  Relapses: two
[6]; six RR patients, re-treatment period
  Relapses: none
[6]; six RR patients, treatment period
  Relapses: one
[7]
  Reduction of gadolinium-enhancing lesions on serial brain MRIs: > 80%
[8]; estriol 8 mg/daily oral from day 10 post-partum, with Copaxone, third child
  Post-partum relapses: no relapses for 6 months
[8]; estriol 8 mg/daily with Copaxone and norethindrone 0.35 mg daily
  Adverse events: increased irregular menstrual bleeding
[8]; estriol 8 mg/daily with Copaxone, 6 months post-partum
  EDSS: 1
[8]; month 3 and 6
  Uterine ultrasounds: thin, not thick, endometrium
[8]; post partum month 4, estriol with Copaxone
  Gadolinium enhancement on brain MRI: no enhancement
[8]; post partum month 5, estriol with Copaxone
  Gadolinium enhancement on brain MRI: only one small enhancing lesion
[8]; post partum month 6, estriol with Copaxone
  Gadolinium enhancement on brain MRI: No new enhancement
[8]; post partum months 4-6, estriol with Copaxone
  T2 lesion load: stable throughout
[9]
  Serum estriol levels: approximated those observed in women who were six months pregnant
[10]; RR group, four month re-treatment extension period
  Change in median T2 lesion volumes (lower): 2.0%
[10]; RR group, six month post treatment period
  Change in median T2 lesion volumes (higher): 7.4%
[10]; RR group, six month treatment period
  Change in median T2 lesion volumes: 0%
[10]; [12]
  Decrease in median total enhancing lesion numbers: 82%
  Decrease in median total enhancing lesion volumes: 79%
[10]; RR patients, last three months of the post treatment period
  Median total enhancing lesion volumes and numbers: returning to near baseline levels
[10]; [13]
  Decrease in median total enhancing lesion numbers: 82%
  Decrease in median total enhancing lesion volumes: 82%
[10]; all ten MS patients (6RR, 4SP), treatment period vs six month pretreatment baseline
  Total volume and number of enhancing lesions: decreased
[11]; four SP patients
  Levels of IFNγ: no decrease
[11]; six RR patients, study month 9 (three months of treatment) vs pretreatment
  Levels of IFNγ: variably decreased
[11]; six RR patients, study month 12 (six months of treatment) vs pretreatment
  Levels of IFNγ: significantly decreased
EAE mice; 90 day release pellets of 5 or 15 milligrams estriol, before or after disease onset
  EAE disease severity: reduced
EAE mice; [14]
  Inflammation and demyelination: reduced inflammation and demyelination
  Production of the Th2 cytokine IL-10: increase production
EAE mice; late pregnancy levels of estriol or supraphysiological doses of estradiol (5 times pregnancy levels)
  Onset of clinical EAE: delay the onset

From patent publication US10610535B2 (The Regents of the University of California, priority 2005, dated 2020)
